Test results from PMC11726359, “Discovery of Rezatapopt (PC14586), a First-in-Class, Small-Molecule Reactivator of p53 Y220C Mutant in Development” (ACS Medicinal Chemistry Letters, 2024).

Legend:
[1] = biological target: T1, recombinant His-tag Y220C p53 DNA binding domain (Homo sapiens, UniProt P04637, Y220C); test: TR-FRET DNA binding assay (SC150); assay type: biochemical
T1 construct: Y220C p53 DBD protein (amino acids #94-312); made in house
Source text: At the outset of our hit generation campaign, several small molecules targeting the p53 Y220C mutant protein were identified. Two notable examples, supported by crystallographic data, were the compounds from the carbazole series[6] (PhiKan83) and the iodophenol series[7] (PK1596) (Figure 1). To assess the in vitro potency of the p53 Y220C reactivators, a time-resolved fluorescence resonance energy transfer (FRET) assay was developed. In this assay, recombinant His-tag Y220C p53 DNA binding domain binds to biotin-labeled consensus DNA, and the FRET signal is measured between the allophycocyanin-conjugated anti-His-tag antibody and europium-conjugated streptavidin. The […] concentration required to increase DNA binding by 1.5-fold (SC150) could then be determined. The carbazole compound (PhiKan83) enhanced DNA binding with an SC150 of 37.2 μM. […]
Time-Resolved Fluorescence Resonance Energy Transfer (TR-FRET) Assay
DNA binding activity was measured by the TR-FRET assay. In this assay, the recombinant His6-tag Y220C p53 DNA binding domain (DBD) protein binds to biotin labeled consensus DNA. The binding of recombinant His6-tag Y220C p53 DBD protein and biotin-labeled consensus DNA is detected by the fluorescence resonance energy transfer (FRET) between allophycocyanin (APC) conjugated anti-His6 tag antibody and Europium-(Eu) conjugated Streptavidin. Test compounds, at 2 mM stock in DMSO, were diluted t hr e e-f ol d in serial dilutions in DMSO and 1.2 µL per well were added into 384-well polypropylene black plates (NUNC). Subsequently, 30 µL per well of 181 nM recombinant His6-tag Y220C p53 DBD protein (amino acids #94-312) and 9.1 nM of APC conjugated anti-His6 tag antibody (Columbia Biosciences) in ice-cold Assay Buffer 1 (50 mM Tris-HCl, pH 7.4, 75 mM KCl, 0.75 mM DTT and 0.2 mg/mL bovine serum albumin [BSA]) was added. As a background control, 30 µL of Assay Buffer 1 containing 9.1 nM of APC anti-His6 antibody (no Y220C protein) was also added into a second set of serial diluted compound plates. The samples were centrifuged at 1,200 rpm (Eppendorf 5810R plate centrifuge) for 1 minute and incubated at room temperature (20 °C) for 15 min. The samples were then incubated at 27 °C in a water bath for 48 min. Afterwards, 5 µL per well of 145 nM biotin labeled oligonucleotide from a consensus DNA p53 response element (a DNA duplex with 5’ to 3’sequence of […]
and biotin attached to the 3’ end of the complementary DNA) and 8.8 nM Eu-conjugated streptavidin (Columbia Biosciences) in Assay Buffer 2 (50 mM Tris-HCl, pH 7.4, 75 mM KCl and 0.2 mg/mL BSA) were added. The samples were centrifuged at 1,200 rpm for 1 min and incubated at room temperature (20 °C) for 20 min. Assay signals were monitored by reading excitation at 340 nm, and emission fluorescence at 615 and 665 nm, on an Envision reader (Perkin El mer). Normalized TR -FRET assay signal (Rn) was calculated by the formula:
Rn = [(A − B a − C × (D − Bd))/(D − Bd)] × (Dc − B d),
C = (Ac − B a)/(Dc − B d), […]

[2] = tested on: NUGC-3, gastric cancer cell line with a TP53 Y220C mutation; test: MTT cell proliferation assay; assay type: cell-based, human; conditions: for IC50: Homo sapiens, NUGC-3, 120 h, NUGC-3 cells, five days incubation
Procedure: We also evaluated the effects of these compounds on the growth and viability of four cancer cell lines in vitro. Two of the cell lines (NUGC-3, gastric cancer cell line with a TP53 Y220C mutation and T3M-4, pancreatic carcinoma cell line) have the TP53 Y220C mutation leading to the p53 Y220C mutant protein; SJSA-1 is a p53 WT cell line, and NUGC-3-KO is an isogenic p53 knockout cell line.[11] After incubating the cells with the compounds for five days, cell viability was measured using the 3-(4,5-dimethylthiazol-2-yl)-2,5-diphenyltetrazolium bromide (MTT) assay.
C = (Ac − B a)/(Dc − B d),
Prism (GraphPad) or XLfit software (IDBS).
Cells were seeded at an appropriate
Compounds were tested at eight concentrations with 2-fold serial dilutions. […]
with a reference wavelength of 650 nm. […]
untreated cells (control). […]

[3] = Pharmacokinetic study in mice; conditions: 50 mg/kg
Procedure: Pharmacokinetic parameters were evaluated in female CD-1 mice. Animals received an oral gavage dose of 50 mg/kg of the test article. The test article was formulated in a solution containing 2% hydroxypropyl
cellulose and 0.5% Tween 80 in water. Blood samples were collected at 0.5, 1, 2, 4, 7, and 24 h post dose.
Blood samples were processed into plasma, and the concentrations of the test article were determined by
LC-MS/MS. P harmacokinetic parameters were calculated using the Phoenix WinNonlin 6.3 program,
employing a non- compartmental model 200.

[4] = Table 2, concentration required to increase DNA binding by 1.5-fold
[5] = Table 1, concentration required to increase DNA binding by 1.5-fold
[6] = Table 3, concentration required to increase DNA binding by 1.5-fold
[7] = Figure 1, enhancement of DNA binding

COc1cc(S(C)(=O)=O)ccc1NCC#Cc1cc2c(N[C@@H]3CCN(C)C[C@H]3F)cccc2n1CC(F)(F)F (racemic) [Compound 19, Rac-N-[(3R,4R)-3-fluoro-1-methyl-4-piperidyl]-2-[3-(2-methoxy-4-methylsulfonyl-anilino)prop-1-ynyl]-1-(2,2,2-trifluoroethyl)indol-4-amine]
SC150 [1, 4]: 0.02 µM
IC50 ([2]; Table 2): 3 µM

COc1cc(S(C)(=O)=O)ccc1NCC#Cc1cc2c(N[C@@H]3CCN(C)C[C@@H]3F)cccc2n1CC(F)(F)F (racemic) [Compound 20, Rac-N-[(3S,4R)-3-fluoro-1-methyl-4-piperidyl]-2-[3-(2-methoxy-4-methylsulfonyl-anilino)prop-1-ynyl]-1-(2,2,2-trifluoroethyl)indol-4-amine]
SC150 [1, 4]: 0.009 µM
IC50 ([2]; Table 2): 0.7 µM
fold higher potency in the MTT assay ([2]; among the two pairs of stereoisomers from fluorine substitution of compound 13): over 3 fold

CCn1c(C#CCNc2ccccc2)cc2cc(C(=O)NC3CCN(C)CC3)ccc21 [Compound 2, 2-(3-anilinoprop-1-ynyl)-1-ethyl-N-(1-methyl-4-piperidyl)indole-5-carboxamide]
SC150 [1, 5]: >150 µM

CCn1c(C#CCNc2ccccc2)cc2cc(CNC3CCOCC3)ccc21 [Compound 3, N-((1-ethyl-2-(3-(phenylamino)prop-1-yn-1-yl)-1H-indol-5-yl)methyl)tetrahydro-2H-pyran-4-amine]
SC150 [1, 5]: 26.5 µM

CCn1c(C#CCNc2ccc(C)nc2)cc2cc(CNC3CCOCC3)ccc21 [Compound 4, N-(3-(1-ethyl-5-(((tetrahydro-2H-pyran-4-yl)amino)methyl)-1H-indol-2-yl)prop-2-yn-1-yl)-6-methylpyridin-3-amine]
SC150 [1, 5]: 6.3 µM

CCn1c(C#CCNc2ccc(C(C)(C)C)nc2)cc2cc(CNC)ccc21 [Compound 5, 6-(tert-butyl)-3-(3-{1-ethyl-5-[(methylamino)methyl]-2-indolyl}-2-propynylamino)pyridine]
SC150 [1, 5]: 6.4 µM

CCn1c(C#CCNc2ccc(C(C)(C)C#N)nc2)cc2cc(CNC3CCOCC3)ccc21 [Compound 6, 2-(5-((3-(1-ethyl-5-(((tetrahydro-2H-pyran-4-yl)amino)methyl)-1H-indol-2-yl)prop-2-yn-1-yl)amino)pyridin-2-yl)-2-methylpropanenitrile]
SC150 [1, 5]: 1.3 µM

CC(C)(C#N)c1ccc(NCC#Cc2cc3cc(CNC4CCOCC4)ccc3n2CC(F)(F)F)cn1 [Compound 7, 2-methyl-2-(5-((3-(5-(((tetrahydro-2H-pyran-4-yl)amino)methyl)-1-(2,2,2-trifluoroethyl)-1H-indol-2-yl)prop-2-yn-1-yl)amino)pyridin-2-yl)propanenitrile]
SC150 [1, 5]: 0.48 µM

CC(C)(C#N)c1ccc(NCC#Cc2cc3c(CNC4CCOCC4)cccc3n2CC(F)(F)F)cn1 [Compound 8, 2-methyl-2-(5-((3-(4-(((tetrahydro-2H-pyran-4-yl)amino)methyl)-1-(2,2,2-trifluoroethyl)-1H-indol-2-yl)prop-2-yn-1-yl)amino)pyridin-2-yl)propanenitrile]
SC150 [1, 5]: 1.300 µM

CC(C)(C#N)c1ccc(NCC#Cc2cc3c(NC4CCOCC4)cccc3n2CC(F)(F)F)cn1 [Compound 9, 2-methyl-2-(5-((3-(4-((tetrahydro-2H-pyran-4-yl)amino)-1-(2,2,2-trifluoroethyl)-1H-indol-2-yl)prop-2-yn-1-yl)amino)pyridin-2-yl)propanenitrile]
SC150 [1, 5]: 0.105 µM

CN1CCC(Nc2cccc3c2cc(C#CCNc2ccc(C(C)(C)C#N)nc2)n3CC(F)(F)F)CC1 [Compound 10, 2-methyl-2-(5-((3-(4-((1-methylpiperidin-4-yl)amino)-1-(2,2,2-trifluoroethyl)-1H-indol-2-yl)prop-2-yn-1-yl)amino)pyridin-2-yl)propanenitrile]
SC150 [1, 5]: 0.054 µM

CN1CCC(Nc2cccc3c2cc(C#CCNc2ccc(S(C)(=O)=O)cc2)n3CC(F)(F)F)CC1 [Compound 11, N-(1-methylpiperidin-4-yl)-2-(3-((4-(methylsulfonyl)phenyl)amino)prop-1-yn-1-yl)-1-(2,2,2-trifluoroethyl)-1H-indol-4-amine]
SC150 [1, 5]: 0.027 µM

Cc1cc(S(C)(=O)=O)ccc1NCC#Cc1cc2c(NC3CCN(C)CC3)cccc2n1CC(F)(F)F [Compound 12, 2-[3-(2-methyl-4-methylsulfonyl-anilino)prop-1-ynyl]-N-(1-methyl-4-piperidyl)-1-(2,2,2-trifluoroethyl)indol-4-amine]
SC150 [1, 5]: 0.030 µM

CN1CCC(Nc2cccc3c2cc(C#CCNc2ccc(S(C)(=O)=O)cc2OC(F)(F)F)n3CC(F)(F)F)CC1 [Compound 14, N-(1-methyl-4-piperidyl)-2-[3-[4-methylsulfonyl-2-(trifluoromethoxy)anilino]prop-1-ynyl]-1-(2,2,2-trifluoroethyl)indol-4-amine]
SC150 [1, 5]: 0.030 µM

COc1cc(S(C)(=O)=O)ccc1NCC#Cc1cc2c(N[C@H]3CCN(C)C[C@H]3F)cccc2n1CC(F)(F)F [Compound 21, N-[(3R,4S)-3-fluoro-1-methyl-4-piperidyl]-2-[3-(2-methoxy-4-methylsulfonyl-anilino)prop-1-ynyl]-1-(2,2,2-trifluoroethyl)indol-4-amine]
SC150 [1, 4]: 0.02 µM
Mouse PK Exposure AUC0-last ([3]; Table 2, PO): 23233 ng·h/mL
Mouse PK Exposure Cmax ([3]; Table 2, PO): 2353 ng/mL
IC50 ([2]; Table 2): 2.3 µM

COc1cc(S(N)(=O)=O)ccc1NCC#Cc1cc2c(N[C@@H]3CCN(C)C[C@@H]3F)cccc2n1CC(F)(F)F [Compound 23, 4-((3-(4-(((3S,4R)-3-fluoro-1-methylpiperidin-4-yl)amino)-1-(2,2,2-trifluoroethyl)-1H-indol-2-yl)prop-2-yn-1-yl)amino)-3-methoxybenzenesulfonamide]
SC150 [1, 6]: 0.009 µM
Mouse PK Exposure AUC0-last ([3]; Table 3, PO): 8066 ng·h/mL
Mouse PK Exposure Cmax ([3]; Table 3, PO): 1310 ng/mL
IC50 ([2]; Table 3): 0.261 µM

COc1cc(C(=O)N2CCN(C)CC2)ccc1NCC#Cc1cc2c(N[C@@H]3CCN(C)C[C@@H]3F)cccc2n1CC(F)(F)F [Compound 30, [4-[3-[4-[[(3S,4R)-3-fluoro-1-methyl-4-piperidyl]amino]-1-(2,2,2-trifluoroethyl)indol-2-yl]prop-2-ynyl-amino]-3-methoxy-phenyl]-(4-methylpiperazin-1-yl)methanone]
SC150 [1, 6]: 0.009 µM
IC50 ([2]; Table 3): 0.791 µM

COc1cc(C(=O)NC2CCN(C)CC2)ccc1NCC#Cc1cc2c(N[C@@H]3CCN(C)C[C@@H]3F)cccc2n1CC(F)(F)F [Compound 31, 4-[3-[4-[[(3S,4R)-3-fluoro-1-methyl-4-piperidyl]amino]-1-(2,2,2-trifluoroethyl)indol-2-yl]prop-2-ynyl-amino]-3-methoxy-N-(1-methyl-4-piperidyl)benzamide]
SC150 [1, 6]: 0.005 µM
IC50 ([2]; Table 3): 1.16 µM

CCN(CC)C1CCN(Cc2cc(C#CCNc3ccccc3)cc(I)c2O)CC1 [PK1596, reference compound]
SC150 [1, 7]: 1.6 µM

CCn1c2ccccc2c2cc(CNC)ccc21 [PhiKan83, reference compound]
SC150 [1, 7]: 37.2 µM
